This note sets out measurements from patent US20110269834A1 (priority 2008, published 2011).

Read-outs that look alike come from different tables or passages of the source. Where only a bound is given, the exact number is not on record here.

In series [1] the target is T1, SARS-CoV PLpro (Severe acute respiratory syndrome coronavirus, UniProt P0C6X7). The experiment in a line: biochemical. The note with it: for inhibition at 100 µM: read-out: inhibition of PLpro activity.
In another series the test system is SARS-CoV. Description: microbe, parasite or virus in culture. Type of series: cell-based, SARS-CoV Urbani strain.
In another series the target is T2, hUCH-L1 (Homo sapiens, UniProt P09936).
T2 construct: purchased Biomol International
T2 sequence (P09936 1-223): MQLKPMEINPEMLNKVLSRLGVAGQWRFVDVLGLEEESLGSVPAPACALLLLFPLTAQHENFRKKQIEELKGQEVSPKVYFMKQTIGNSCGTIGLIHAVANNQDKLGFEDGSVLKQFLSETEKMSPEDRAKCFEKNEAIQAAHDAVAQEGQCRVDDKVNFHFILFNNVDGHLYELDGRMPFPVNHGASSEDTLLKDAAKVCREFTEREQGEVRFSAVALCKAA
The experiment in a line: Inhibitor specificity assay, UCH-L1. The format is biochemical. The note with it: Table 6; assayed with 100 μM inhibitor, ubiquitin-AMC substrate.

Another series deals with T3, hUCH-L3 (Homo sapiens, UniProt P15374).
T3 construct: purchased Biomol International
T3 sequence (P15374 1-230): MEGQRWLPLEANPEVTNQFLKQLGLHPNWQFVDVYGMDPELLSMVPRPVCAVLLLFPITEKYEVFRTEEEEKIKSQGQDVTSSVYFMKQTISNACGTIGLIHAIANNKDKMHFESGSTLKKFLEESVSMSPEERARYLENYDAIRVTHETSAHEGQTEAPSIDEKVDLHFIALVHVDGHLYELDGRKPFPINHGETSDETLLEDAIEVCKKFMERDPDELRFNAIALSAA
Description: Inhibitor specificity assay, UCH-L3. The format is biochemical. The conditions noted are these: Table 6; assayed with 100 μM inhibitor, ubiquitin-AMC substrate.

Series [2] addresses T1, SARS-CoV PLpro. The format is biochemical.
Series [3] concerns the target T1, SARS-CoV PLpro. The format is biochemical. This is another data set of the same source.
The target in another series is T4, HAUSP (Homo sapiens, UniProt Q93009).
T4 construct: purchased Boston Biochem
T4 sequence (Q93009 whole entry): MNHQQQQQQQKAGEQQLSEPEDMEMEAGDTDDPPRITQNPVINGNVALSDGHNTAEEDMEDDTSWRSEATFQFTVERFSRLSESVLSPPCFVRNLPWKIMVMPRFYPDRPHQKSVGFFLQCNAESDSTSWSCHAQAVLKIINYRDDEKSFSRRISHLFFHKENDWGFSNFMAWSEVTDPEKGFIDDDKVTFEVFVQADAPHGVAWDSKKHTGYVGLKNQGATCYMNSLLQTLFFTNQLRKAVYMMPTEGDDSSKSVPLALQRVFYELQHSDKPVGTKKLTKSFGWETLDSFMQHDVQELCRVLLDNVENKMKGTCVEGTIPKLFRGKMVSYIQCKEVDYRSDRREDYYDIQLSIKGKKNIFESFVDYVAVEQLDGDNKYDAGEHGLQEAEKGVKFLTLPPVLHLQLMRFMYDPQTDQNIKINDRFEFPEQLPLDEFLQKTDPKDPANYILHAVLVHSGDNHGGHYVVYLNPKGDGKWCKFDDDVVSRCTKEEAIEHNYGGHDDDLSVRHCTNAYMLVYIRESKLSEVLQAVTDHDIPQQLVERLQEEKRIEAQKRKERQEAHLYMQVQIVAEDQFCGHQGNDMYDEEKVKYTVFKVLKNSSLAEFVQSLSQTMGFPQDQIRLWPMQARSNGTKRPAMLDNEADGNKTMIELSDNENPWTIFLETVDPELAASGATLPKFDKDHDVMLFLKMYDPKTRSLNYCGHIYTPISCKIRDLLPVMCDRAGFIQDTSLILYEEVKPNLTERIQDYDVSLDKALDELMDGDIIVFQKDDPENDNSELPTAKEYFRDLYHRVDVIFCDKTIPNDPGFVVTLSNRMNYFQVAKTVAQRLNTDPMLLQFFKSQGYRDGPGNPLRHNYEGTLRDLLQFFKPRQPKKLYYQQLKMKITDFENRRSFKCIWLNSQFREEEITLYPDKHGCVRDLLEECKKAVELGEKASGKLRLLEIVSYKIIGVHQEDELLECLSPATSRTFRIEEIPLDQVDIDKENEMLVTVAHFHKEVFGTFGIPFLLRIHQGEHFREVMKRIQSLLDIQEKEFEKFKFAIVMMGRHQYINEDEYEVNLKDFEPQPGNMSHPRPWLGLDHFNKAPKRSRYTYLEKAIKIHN
Description: Inhibitor specificity assay, HAUSP. The note with it: Table 6; assayed with 100 μM inhibitor, ubiquitin-AMC substrate. The format is biochemical.

In the next series the target is T5, hUSP18 (Homo sapiens, UniProt Q9UMW8).
T5 construct: purchased Boston Biochem
T5 sequence (Q9UMW8 1-372): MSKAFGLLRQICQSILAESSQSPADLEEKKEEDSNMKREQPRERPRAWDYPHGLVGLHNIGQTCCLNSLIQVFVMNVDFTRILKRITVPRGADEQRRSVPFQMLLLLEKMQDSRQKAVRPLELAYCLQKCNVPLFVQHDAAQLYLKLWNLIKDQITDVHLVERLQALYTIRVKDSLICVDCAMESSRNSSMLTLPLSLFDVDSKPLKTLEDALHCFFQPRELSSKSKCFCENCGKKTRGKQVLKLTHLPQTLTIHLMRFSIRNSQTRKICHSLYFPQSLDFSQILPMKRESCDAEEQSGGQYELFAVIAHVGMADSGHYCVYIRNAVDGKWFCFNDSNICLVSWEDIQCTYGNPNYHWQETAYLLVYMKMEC
The experiment in a line: Inhibitor specificity assay, USP18. Type of series: biochemical. The conditions noted are these: Table 6; assayed with 100 μM inhibitor, ISG15-AMC substrate.

Series [4] concerns the target T1, SARS-CoV PLpro. The experiment in a line: biochemical. The note with it: read-out: percent inhibition of PLpro in primary screen.
The mark [5] stands for this setting: Severe acute respiratory syndrome coronavirus, Vero C1008.
[6] abbreviates: Severe acute respiratory syndrome coronavirus, Vero C1008, 48 h, read-out: EC50 of antiviral activity.
Where [7] appears, read: read-out: IC50 (μM), enzyme inhibitory activity.

On to `COc1cccc(CNC(=O)C2CCN([C@H](C)c3ccc4ccccc4c3)CC2)c1` [Compound 62], for which, on SARS-CoV PLpro [1], the IC50 is 5.8 ± 0.1 µM.
As for “5-Methylamino-2-methyl-N—[(R)-1-(1-naphthyl)ethyl]benzamide [Compound 2]”, the EC50 in the series on SARS-CoV (Table 5, antiviral activity against SARS-CoV, highest concentration tested 50 uM, read-out: EC50) came to 6 ± 0.1 µM.
For the compound `Cc1ccccc1C(=O)N[C@H](C)c1cccc2ccccc12` [Compound 5h, 2-Methyl-N—[(R)-1-(1-naphthyl)ethyl]benzamide], the EC50 in the series with SARS-CoV (setting [5]) is 10 ± 1.2 µM; in the series with SARS-CoV (setting [6]) it was 10 to 15 µM. The IC50 against hUCH-L1 and on hUCH-L3 was over 100 µM in each case. In addition, the “toxicity in Vero E6 cells” value with Vero E6 cells is reported as “without toxicity up to the highest concentration tested”.
For the compound `C[C@@H](c1cccc2ccccc12)N1CCC(C(=O)NCc2ccc3c(c2)OCO3)CC1` [Compound 68], the IC50 on SARS-CoV PLpro [1] (read-out: IC50) came to 0.56 µM. This compound yielded an EC50 with SARS-CoV (setting [5]) of 3 µM.
`CCC(NC(=O)c1ccccc1C)c1ccc2ccccc2c1` (racemic) [Compound 14, 2-Methyl-N-[1-(2-naphthyl)propyl]benzamide]: the concentration for half-maximal inhibition (IC50) against SARS-CoV PLpro [1] is over 200 µM.
`Cc1ccc(N)cc1C(=O)NC(C)(C)c1cccc2ccccc12` [Compound 29, 5-Amino-2-methyl-N-[1-methyl-1-(1-naphthyl)ethyl]benzamide]: the EC50 with SARS-CoV (setting [5]) was over 50 µM.
`C[C@@H](NC(=O)c1ccccc1O)c1ccc2ccccc2c1` [Compound 5g, 2-Hydroxy-N—[(R)-1-(2-naphthyl)ethyl]benzamide]: the half-maximal inhibitory concentration (IC50) against SARS-CoV PLpro [1] was over 200 µM.
As for `CCc1ccccc1C(=O)N[C@H](C)c1ccc2ccccc2c1` [Compound 4, 2-Ethyl-N—[(R)-1-(2-naphthyl)ethyl]benzamide], the IC50 against SARS-CoV PLpro [1] was over 200 µM.
As to `Cc1ccccc1C(=O)NC(c1ccccc1)c1ccc2ccccc2c1` (stereo not shown) [Compound 17, 2-Methyl-N-[1-(2-naphthyl)benzyl]benzamide], the IC50 on SARS-CoV PLpro [1] (setting [7]) is over 200 µM.
Take `CC(=O)Nc1ccc(C)c(C(=O)N[C@H](C)c2cccc3ccccc23)c1` [Compound 25, 5-N-Acetylamino-2-methyl-N—[(R)-1-(1-naphthyl)ethyl]benzamide]: the IC50 was 2.64 ± 0.04 µM on SARS-CoV PLpro [1] (read-out: IC50); 2.64 ± 0.04 µM on SARS-CoV PLpro [1] (setting [7]); 2.6 µM at SARS-CoV PLpro [1] (read-out: IC50 values (μM) PLpro); over 100 µM at hUCH-L1; over 100 µM on hUCH-L3. For the same compound, the EC50 with SARS-CoV (setting [5]) was 13.1 ± 0.7 µM; with SARS-CoV (setting [6]), 10 to 15 µM. In addition, the “toxicity in Vero E6 cells” value in the series on Vero E6 cells was “without toxicity up to the highest concentration tested”.
Turning to `Cc1cc(N)ccc1C(=O)NC(C)c1ccnc2ccccc12` (racemic) [Compound 52], on SARS-CoV PLpro [1], it took 2.3 µM to reach half-maximal inhibition (IC50).
The compound `C[C@H](c1cccc2ccccc12)N1CCC(C(=O)NCc2ccc3c(c2)OCO3)CC1` [Compound 69] showed an EC50 with SARS-CoV (setting [5]) of 3 µM.
As to `Cc1ccc(N)cc1C(=O)NC(C)c1ccnc2ccccc12` (racemic) [Compound 50], at SARS-CoV PLpro [1], the IC50 worked out at 1.85 µM.
In turn, `CNCc1ccc(C)c(C(=O)N[C@H](C)c2cccc3ccccc23)c1` [Compound 49] had an EC50 in the series with SARS-CoV (setting [5]) of 5.2 ± 0.3 µM.
In the case of `Cc1ccc(N)cc1C(=O)N[C@H](C)c1cccc2ccccc12` [Compound 24, 5-Amino-2-methyl-N—[(R)-1-(1-naphthyl)ethyl]benzamide], on SARS-CoV PLpro [2], the mode of inhibition result is given as “competitive inhibitor”. The “PLpro activity recovered after dialysis” value at SARS-CoV PLpro [3] is listed as “Approximately 25%”. In addition, the IC50 against hUCH-L1, against hUCH-L3, on HAUSP and on hUSP18 was over 100 µM in each case. Also, in the series on Vero E6 cells, the “toxicity in Vero E6 cells” value is recorded as “without toxicity up to the highest concentration tested”.
As to `C[C@@H](NC(=O)c1ccccc1Cl)c1ccc2ccccc2c1` [Compound 3, 2-Chloro-N—[(R)-1-(2-naphthyl)ethyl]benzamide], on SARS-CoV PLpro [1], the IC50 turned out to be 14.5 ± 0.9 µM and the “fold decrease in inhibitory potency compared to 1b” value was found to be 2 fold. The EC50 with SARS-CoV (setting [5]) was over 50 µM.
In turn, `Cc1ccc(CNC(=O)OC(C)(C)C)cc1C(=O)N[C@H](C)c1cccc2ccccc12` [Compound 47, 5-N-tert-Butoxycarbonylmethylamino-2-methyl-N^0—[(R)-1-(1-naphthyl)ethyl]benzamide] registered an EC50 with SARS-CoV (setting [5]) of over 50 µM.
Turning to `COc1ccccc1CNC(=O)C1CCN([C@H](C)c2cccc3ccccc23)CC1` [Compound 67], at SARS-CoV PLpro [1] (read-out: IC50), the IC50 amounted to 1.21 ± 0.04 µM.
Consider `COc1cccc(CNC(=O)C2CCN([C@@H](C)c3ccc4ccccc4c3)CC2)c1` [Compound 61], for which, at SARS-CoV PLpro [1], the IC50 came out at 13.2 ± 0.6 µM. Moreover, in the series with SARS-CoV (setting [5]), the EC50 came to 12 µM.
`C[C@@H](NC(=O)c1ccc(NC(=O)OC(C)(C)C)cc1)c1ccc2ccccc2c1` [Compound 8, 4-N^0-tert-Butoxycarbonylamino-N—[(R)-1-(2-naphthyl)ethyl]-benzamide] yielded an IC50 against SARS-CoV PLpro [1] of over 200 µM.
`Cc1cccc(C(=O)N[C@H](C)c2ccc3ccccc3c2)c1` [Compound 5a, 3-Methyl-N—[(R)-1-(2-naphthyl)ethyl]benzamide] returned an EC50 with SARS-CoV (setting [5]) of over 50 µM.
For `Cc1ccccc1C(=O)N[C@@H](C)c1ccc2ccccc2c1` [Compound 1a], the inhibition at 100 µM at SARS-CoV PLpro [1] stood at 14%.
`Cc1ccc([N+](=O)[O-])cc1C(=O)N[C@H](C)c1cccc2ccccc12` [Compound 5i, 2-Methyl-5-nitro-N—[(R)-1-(1-naphthyl)ethyl]benzamide]: at SARS-CoV PLpro [1], it took 7.3 ± 0.9 µM to reach half-maximal inhibition (IC50) and the “fold decrease in activity compared to 5h” value is about 3 fold. Also, the EC50 in the series with SARS-CoV (setting [5]) was over 50 µM.
Turning to `COc1cccc(CNC(=O)C2CCN([C@H](C)c3cccc4ccccc34)CC2)c1` [Compound 64], the IC50 at SARS-CoV PLpro [1] (read-out: IC50) worked out at 0.34 µM. In the series on SARS-CoV (setting [5]), this compound showed an EC50 of 8 µM.
As for `Cc1ccccc1C(=O)NC(C)c1ccc2ccccc2c1` (racemic) [Compound 1, 2-methyl-N-[1-(2-naphthyl)ethyl]benzamide], the EC50 in the series with SARS-CoV (setting [5]) was over 50 µM. At SARS-CoV PLpro [4], the inhibition at 20 µM is over 35%.
In turn, `Cc1cc([N+](=O)[O-])ccc1C(=O)NC(C)c1ccnc2ccccc12` (racemic) [Compound 51] gave an IC50 at SARS-CoV PLpro [1] of 3.5 µM.
Consider `COc1ccc(CNC(=O)C2CCN([C@H](C)c3cccc4ccccc34)CC2)cc1` [Compound 63], for which the IC50 on SARS-CoV PLpro [1] (read-out: IC50) amounted to 0.34 µM. In the series with SARS-CoV (setting [5]), the EC50 worked out at 10 µM.
On to `Cc1ccccc1C(=O)N[C@H](C)c1ccc2ccccc2c1` [Compound 1b, 2-Methyl-N—[(R)-1-(2-naphthyl)ethyl]benzamide], for which, on SARS-CoV PLpro [1], the inhibition at 100 µM was over 90%. This compound also came in with an EC50 with SARS-CoV (setting [5]) of over 50 µM.

The term IC50 denotes the concentration at which inhibition is half-maximal. In general, EC50 refers to the midpoint of the concentration-response curve. A word on the inhibition: it is the change of the read-out against control, counted positive when it falls.
